Results published in patent US6642222B2, “Pyrano, piperidino, and thiopyrano compounds and methods of use” (Abbott Laboratories, priority 1998, dated 2003).

Columns and labels:
[1] = system: Guinea-Pig Bladder (GPB) Cells; experiment: Membrane Hyperpolarization (MHP) assay, DiBAC(4)3 / FLIPR; details: Cavia porcellus; for EC50: membrane hyperpolarization, GPB cells; for Emax: read-out: Maximal Response (% P1075), maximal steady-state hyperpolarization, normalized to 10 μM P1075 (100%)

| Structure (SMILES) | melting point [°C] | EC50 [1] [µM] | Emax [1] [%] |
| --- | --- | --- | --- |
| CN1CC(=O)C2=C(C1)NC1=C(C(=O)CCC1)C2c1ccc(F)c(Br)c1.Cl (stereo not shown) [Example 3, 5-(3-bromo-4-fluorophenyl)-2-methyl-2,3,5,8,9,10-hexahydrobenzo[b][1,7]naphthyridine-4,6(1H, 7H)-dione Hydrochloride] | 248 to 250 | 27 | 41 |
| O=C1COCC2=C1C(c1ccc(F)c(Br)c1)C1=C(CNC1=O)N2 (stereo not shown) [Example 27, 9-(3-bromo-4-fluorophenyl)-2,3,5,9-tetrahydropyrano[3,4-b]pyrrolo[3,4-e]pyridine-1,8(4H,7H)-dione] | > 260 | 0.97 | 87 |
| CC1(C)CCC2=C(C1=O)C(c1ccc(F)c(Br)c1)C1=C(COCC1=O)N2 (stereo not shown) [Example 41, 5-(3-bromo-4-fluorophenyl)-7,7-dimethyl-5,8,9,10-tetrahydro-1H-pyrano[3,4-b]quinoline-4,6(3H,7H)-dione] | > 260 | 0.071 | 66 |
| CC1(C)OC(=O)C2=C1NC1=C(C(=O)COC1)C2c1ccc(F)c(Br)c1 (stereo not shown) [Example 99, 9-(3-bromo-4-fluorophenyl)-3,3-dimethyl-5,9-dihydro-3H-furo[3,4-b]pyrano[4,3-e]pyridine-1,8(4H,7H)-dione] | > 260 | – | – |

Second part, led by results:

| melting point [°C] | EC50 [1] [µM] | Structure (SMILES) | Emax [1] [%] |
| --- | --- | --- | --- |
| 246 to 248 | – | CCC1OC(=O)C2=C1NC1=C(C(=O)COC1)C2c1ccc(F)c(Br)c1 (single isomer, unassigned) [Example 96, 9-(3-bromo-4-fluorophenyl)-3-ethyl-5,9-dihydro-3H-furo[3,4-b]pyrano[4,3-e]pyridine-1,8(4H,7H)-dione] | – |
| 206 to 208 | – | CCCC1OC(=O)C2=C1NC1=C(C(=O)COC1)C2c1ccc(F)c(Br)c1 (single isomer, unassigned) [Example 97, 9-(3-bromo-4-fluorophenyl)-3-propyl-5,9-dihydro-3H-furo[3,4-b]pyrano[4,3-e]pyridine-1,8(4H,7H)-dione] | – |
| 219 to 220 | – | CCCC1OC(=O)C2=C1NC1=C(C(=O)COC1)C2c1ccc(F)c(Br)c1 (single isomer, unassigned) [Example 98, 9-(3-bromo-4-fluorophenyl)-3-propyl-5,9-dihydro-3H-furo[3,4-b]pyrano[4,3-e]pyridine-1,8(4H,7H)-dione] | – |
